Laboratory results taken from ChEMBL document CHEMBL1147425, “Structure-activity relationships of non-imidazole H(3) receptor ligands. Part 3: 5-Substituted 3-phenyl-1,2,4-oxadiazoles as potent antagonists” (Bioorg Med Chem Lett, 2004).

Assays:
Histamine H3 receptor [1] = biological target: Histamine H3 receptor (Rattus norvegicus, UniProt Q9QYN8); assay: Binding affinity for rat histamine H3 receptor on rat cortical cells
Histamine H1 receptor = Histamine H1 receptor (Homo sapiens, UniProt P35367); assay: Binding affinity towards histamine H1 receptor of human colon cells was determined; assay type: cell-based
Sequence of Histamine H1 receptor (P35367 whole entry): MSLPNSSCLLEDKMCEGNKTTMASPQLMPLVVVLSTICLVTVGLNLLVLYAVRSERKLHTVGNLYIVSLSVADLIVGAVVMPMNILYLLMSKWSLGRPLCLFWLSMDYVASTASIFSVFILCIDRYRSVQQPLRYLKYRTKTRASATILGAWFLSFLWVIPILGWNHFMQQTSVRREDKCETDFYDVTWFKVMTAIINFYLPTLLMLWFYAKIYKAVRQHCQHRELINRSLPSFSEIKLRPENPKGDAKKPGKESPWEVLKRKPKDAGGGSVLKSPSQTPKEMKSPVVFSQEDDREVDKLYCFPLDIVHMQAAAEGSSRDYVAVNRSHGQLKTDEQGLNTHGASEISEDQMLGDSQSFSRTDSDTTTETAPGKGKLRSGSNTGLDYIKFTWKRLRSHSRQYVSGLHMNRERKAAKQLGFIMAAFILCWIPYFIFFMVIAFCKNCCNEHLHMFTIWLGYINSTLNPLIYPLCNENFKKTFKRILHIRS

Histamine H2 receptor = Histamine H2 receptor (Homo sapiens, UniProt P25021); assay: Binding affinity towards histamine H2 receptor of human colon cells was determined; assay type: cell-based
Sequence of Histamine H2 receptor (P25021 whole entry): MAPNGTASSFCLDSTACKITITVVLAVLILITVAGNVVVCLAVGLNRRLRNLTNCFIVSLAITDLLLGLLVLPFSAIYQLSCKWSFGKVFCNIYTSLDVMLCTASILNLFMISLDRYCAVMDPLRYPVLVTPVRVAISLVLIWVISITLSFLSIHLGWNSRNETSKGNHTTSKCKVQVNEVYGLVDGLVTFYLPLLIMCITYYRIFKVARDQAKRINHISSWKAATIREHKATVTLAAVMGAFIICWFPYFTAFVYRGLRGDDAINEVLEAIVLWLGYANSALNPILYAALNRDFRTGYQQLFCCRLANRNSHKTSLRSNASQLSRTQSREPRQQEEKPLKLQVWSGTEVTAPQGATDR

Mus musculus = assay: Antagonistic effect was observed against agonist induced dipsogenia in mice after i.p. administration of compound; Active; assay type: functional
Histamine H3 receptor [2] = biological target: Histamine H3 receptor (Homo sapiens, UniProt Q9Y5N1); assay: Binding affinity for human histamine H3 receptor on human colon cells; assay type: cell-based
Sequence of Histamine H3 receptor (Homo sapiens, UniProt Q9Y5N1) (Q9Y5N1 whole entry): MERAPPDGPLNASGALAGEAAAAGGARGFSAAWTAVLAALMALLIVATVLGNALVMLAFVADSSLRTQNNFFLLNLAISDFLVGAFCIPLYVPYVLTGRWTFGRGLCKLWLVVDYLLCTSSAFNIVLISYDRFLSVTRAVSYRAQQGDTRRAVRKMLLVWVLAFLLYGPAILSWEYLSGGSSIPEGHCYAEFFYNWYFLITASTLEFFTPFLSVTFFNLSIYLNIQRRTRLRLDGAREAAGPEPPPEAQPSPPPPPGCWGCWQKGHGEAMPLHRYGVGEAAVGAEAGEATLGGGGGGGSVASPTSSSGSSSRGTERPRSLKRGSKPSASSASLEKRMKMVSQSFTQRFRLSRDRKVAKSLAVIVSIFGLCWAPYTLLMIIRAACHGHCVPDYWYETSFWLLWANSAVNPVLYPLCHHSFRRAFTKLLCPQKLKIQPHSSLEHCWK

Histamine H4 receptor = Histamine H4 receptor (Homo sapiens, UniProt Q9H3N8); assay: Binding affinity towards histamine H4 receptor of human colon cells was determined; assay type: cell-based
Sequence of Histamine H4 receptor (Q9H3N8 whole entry): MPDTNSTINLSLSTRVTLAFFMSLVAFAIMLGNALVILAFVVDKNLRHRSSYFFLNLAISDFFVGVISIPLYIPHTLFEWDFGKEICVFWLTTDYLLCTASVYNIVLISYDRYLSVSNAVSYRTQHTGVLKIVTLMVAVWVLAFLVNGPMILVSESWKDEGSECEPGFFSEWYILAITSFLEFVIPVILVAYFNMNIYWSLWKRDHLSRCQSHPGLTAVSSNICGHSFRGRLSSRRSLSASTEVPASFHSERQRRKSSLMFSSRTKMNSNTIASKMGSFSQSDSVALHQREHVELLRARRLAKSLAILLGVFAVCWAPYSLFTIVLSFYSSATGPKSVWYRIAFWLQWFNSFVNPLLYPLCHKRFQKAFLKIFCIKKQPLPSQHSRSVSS

Sequence of Histamine H3 receptor (Rattus norvegicus, UniProt Q9QYN8) (Q9QYN8 whole entry): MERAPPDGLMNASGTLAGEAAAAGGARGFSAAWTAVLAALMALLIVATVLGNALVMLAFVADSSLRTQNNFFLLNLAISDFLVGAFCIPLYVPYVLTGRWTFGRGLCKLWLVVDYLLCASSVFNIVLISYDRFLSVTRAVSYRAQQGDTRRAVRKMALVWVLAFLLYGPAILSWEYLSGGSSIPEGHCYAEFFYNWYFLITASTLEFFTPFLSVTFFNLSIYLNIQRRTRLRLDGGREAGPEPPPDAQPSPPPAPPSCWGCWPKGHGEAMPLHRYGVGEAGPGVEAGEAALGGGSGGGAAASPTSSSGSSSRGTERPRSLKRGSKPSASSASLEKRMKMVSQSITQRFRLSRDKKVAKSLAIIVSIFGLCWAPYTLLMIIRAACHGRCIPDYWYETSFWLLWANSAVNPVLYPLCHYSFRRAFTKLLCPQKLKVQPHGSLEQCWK

In the case of `C[C@@H](NC(=O)c1ccc(N(C)C)cc1)C(=O)N1CCN(CCCOc2ccc(-c3noc(CC4CCCC4)n3)c(F)c2)CC1`, the Ki (Histamine H3 receptor [1]) is reported as 2.4 nM, the Ki (Histamine H1 receptor) is reported as 890 nM and the Ki (Histamine H2 receptor) is reported as greater than 10000 nM. It also gave an Activity (Mus musculus) greater than 0.01 µM/kg, a Ki (Histamine H3 receptor [2]) of 15 nM and a Ki (Histamine H4 receptor) greater than 10000 nM.
Compound `CC(C)CC(=O)N[C@H](C)C(=O)N1CCCN(CCCOc2ccc(-c3noc(CC4CCCC4)n3)c(F)c2)CC1` has a Ki (Histamine H3 receptor [1]) of 1.1 nM and a Ki (Histamine H3 receptor [2]) of 13 nM.
`C[C@@H](NC(=O)c1ccc(F)cc1)C(=O)N1CCCN(CCCOc2ccc(-c3noc(CC4CCCC4)n3)c(F)c2)CC1` showed a Ki (Histamine H3 receptor [1]) of 1.2 nM and a Ki (Histamine H3 receptor [2]) of 14 nM.
Work on `CC(C)OCc1nc(-c2ccc(OCCCN3CCCN(C(=O)[C@@H](C)NC(=O)c4ccco4)CC3)cc2F)no1` yielded a Ki (Histamine H3 receptor [1]) of 3.7 nM and a Ki (Histamine H3 receptor [2]) of 110 nM.
`C[C@@H](NC(=O)CCN1CCOCC1)C(=O)N1CCN(CCCOc2ccc(-c3noc(CC4CCCC4)n3)c(F)c2)CC1` gave a Ki (Histamine H3 receptor [1]) of 1.1 nM and a Ki (Histamine H3 receptor [2]) of 37 nM.
In the case of `CC(C)C(=O)N[C@H](C)C(=O)N1CCN(CCCOc2ccc(-c3noc(CC4CCCC4)n3)c(F)c2)CC1`, the Ki (Histamine H3 receptor [1]) is reported as 8 nM and the Ki (Histamine H3 receptor [2]) is reported as 230 nM.
With `CCCCC(=O)N[C@H](C)C(=O)N1CCCN(CCCOc2ccc(-c3noc(CC4CCCC4)n3)c(F)c2)CC1` the Ki (Histamine H3 receptor [1]) was 1.4 nM and the Ki (Histamine H3 receptor [2]) was 18 nM.
Compound `C[C@@H](NC(=O)c1cccnc1)C(=O)N1CCN(CCCOc2ccc(-c3noc(CC4CCCC4)n3)c(F)c2)CC1` has a Ki (Histamine H3 receptor [1]) of 1.7 nM and a Ki (Histamine H3 receptor [2]) of 20 nM.
With `CC(C)c1nc(-c2ccc(OCCCN3CCCN(C(=O)[C@@H](C)NC(=O)c4ccco4)CC3)cc2F)no1` the Ki (Histamine H3 receptor [1]) was 2.1 nM and the Ki (Histamine H3 receptor [2]) was 46 nM.
`C[C@@H](N)C(=O)N1CCCN(CCCOc2ccc(-c3noc(C4CC4)n3)c(F)c2)CC1` showed a Ki (Histamine H3 receptor [1]) of 3 nM and a Ki (Histamine H3 receptor [2]) of 240 nM.
In the case of `CC(=O)N[C@H](C)C(=O)N1CCN(CCCOc2ccc(-c3noc(CC4CCCC4)n3)c(F)c2)CC1`, the Ki (Histamine H3 receptor [1]) is reported as 8.9 nM and the Ki (Histamine H3 receptor [2]) is reported as 200 nM.
Work on `C[C@@H](NC(=O)c1ccccc1)C(=O)N1CCN(CCCOc2ccc(-c3noc(-c4ccccc4)n3)c(F)c2)CC1` yielded a Ki (Histamine H3 receptor [1]) of 4.6 nM and a Ki (Histamine H3 receptor [2]) of 39 nM.
Work on `Cc1ccc(C)c(C(=O)N[C@H](C)C(=O)N2CCN(CCCOc3ccc(-c4noc(CC5CCCC5)n4)c(F)c3)CC2)c1` yielded a Ki (Histamine H3 receptor [1]) of 6.6 nM and a Ki (Histamine H3 receptor [2]) of 75 nM.
`C[C@@H](NC(=O)C(C)(C)C)C(=O)N1CCCN(CCCOc2ccc(-c3noc(CC4CCCC4)n3)c(F)c2)CC1` gave a Ki (Histamine H3 receptor [1]) of 2 nM and a Ki (Histamine H3 receptor [2]) of 36 nM.
`C[C@@H](NC(=O)C1CCCCC1)C(=O)N1CCN(CCCOc2ccc(-c3noc(-c4ccccc4)n3)c(F)c2)CC1` was tested, and the Ki (Histamine H3 receptor [1]) was 6.9 nM and the Ki (Histamine H3 receptor [2]) was 49 nM.
For `CCC(CC)c1nc(-c2ccc(OCCCN3CCCN(C(=O)[C@@H](C)NC(=O)c4ccco4)CC3)cc2F)no1`, the Ki (Histamine H3 receptor [1]) was 2.3 nM and the Ki (Histamine H3 receptor [2]) was 34 nM.
With `CC(C)C(NC(=O)OC(C)(C)C)c1nc(-c2ccc(OCCCN3CCCN(C(=O)[C@@H](C)NC(=O)c4ccco4)CC3)cc2F)no1` (some centres undefined) the Ki (Histamine H3 receptor [1]) was 9.8 nM and the Ki (Histamine H3 receptor [2]) was 170 nM.
`C[C@@H](NC(=O)c1ccco1)C(=O)N1CCCN(CCCOc2ccc(-c3noc(-c4cncs4)n3)c(F)c2)CC1` was tested, and the Ki (Histamine H3 receptor [1]) was 6.2 nM and the Ki (Histamine H3 receptor [2]) was 240 nM.
`C[C@@H](N)C(=O)N1CCN(CCCOc2ccc(-c3noc(C4CC4)n3)c(F)c2)CC1` showed a Ki (Histamine H3 receptor [1]) of 3.1 nM and a Ki (Histamine H3 receptor [2]) of 560 nM.
In the case of `C[C@@H](NC(=O)c1ccco1)C(=O)N1CCN(CCCOc2ccc(-c3noc(C4CC4)n3)c(F)c2)CC1`, the Ki (Histamine H3 receptor [1]) is reported as 1.1 nM and the Ki (Histamine H3 receptor [2]) is reported as 64 nM.
`C[C@@H](NC(=O)c1ccco1)C(=O)N1CCCN(CCCOc2ccc(-c3noc(C4CC4)n3)c(F)c2)CC1` showed a Ki (Histamine H3 receptor [1]) of 1.5 nM and a Ki (Histamine H3 receptor [2]) of 42 nM.
For `C[C@@H](NC(=O)c1ccco1)C(=O)N1CCN(CCCOc2ccc(-c3noc(-c4ccccc4)n3)c(F)c2)CC1` (stereo in doubt; 13q), the Ki (Histamine H3 receptor [1]) was 13 nM and the Ki (Histamine H3 receptor [2]) was 83 nM.
Work on `C[C@@H](NC(=O)c1ccc(O)cc1)C(=O)N1CCN(CCCOc2ccc(-c3noc(CC4CCCC4)n3)c(F)c2)CC1` yielded a Ki (Histamine H3 receptor [1]) of 1.3 nM and a Ki (Histamine H3 receptor [2]) of 16 nM.
`C[C@@H](NC(=O)c1ccco1)C(=O)N1CCCN(CCCOc2ccc(-c3noc(CC4CCCC4)n3)c(F)c2)CC1` showed a Ki (Histamine H3 receptor [1]) of 0.83 nM and a Ki (Histamine H3 receptor [2]) of 9.3 nM.
Compound `CC(C)CCc1nc(-c2ccc(OCCCN3CCCN(C(=O)[C@@H](C)NC(=O)c4ccco4)CC3)cc2F)no1` has a Ki (Histamine H3 receptor [1]) of 0.56 nM and a Ki (Histamine H3 receptor [2]) of 8.6 nM.
Work on `CC(C)CC(=O)N[C@H](C)C(=O)N1CCN(CCCOc2ccc(-c3noc(CC4CCCC4)n3)c(F)c2)CC1` yielded a Ki (Histamine H3 receptor [1]) of 5 nM and a Ki (Histamine H3 receptor [2]) of 110 nM.
`C[C@@H](NC(=O)CC(C)(C)C)C(=O)N1CCCN(CCCOc2ccc(-c3noc(CC4CCCC4)n3)c(F)c2)CC1` was tested, and the Ki (Histamine H3 receptor [1]) was 4.9 nM and the Ki (Histamine H3 receptor [2]) was 74 nM.
For `C[C@@H](NC(=O)c1ccc(F)cc1)C(=O)N1CCN(CCCOc2ccc(-c3noc(CC4CCCC4)n3)c(F)c2)CC1`, the Ki (Histamine H3 receptor [1]) was 1.5 nM and the Ki (Histamine H3 receptor [2]) was 17 nM.
Compound `C[C@@H](NC(=O)c1ccco1)C(=O)N1CCCN(CCCOc2ccc(-c3noc(CC4CCCCC4)n3)c(F)c2)CC1` has a Ki (Histamine H3 receptor [1]) of 2.6 nM and a Ki (Histamine H3 receptor [2]) of 21 nM.
`CCC(=O)N[C@H](C)C(=O)N1CCN(CCCOc2ccc(-c3noc(CC4CCCC4)n3)c(F)c2)CC1` showed a Ki (Histamine H3 receptor [1]) of 7.2 nM and a Ki (Histamine H3 receptor [2]) of 170 nM.
`C[C@@H](NC(=O)c1ccco1)C(=O)N1CCCN(CCCOc2ccc(-c3noc(-c4ccncc4)n3)c(F)c2)CC1` was tested, and the Ki (Histamine H3 receptor [1]) was 11 nM and the Ki (Histamine H3 receptor [2]) was 520 nM.
Work on `C[C@@H](NC(=O)c1ccc(Cl)c(Cl)c1)C(=O)N1CCCN(CCCOc2ccc(-c3noc(CC4CCCC4)n3)c(F)c2)CC1` yielded a Ki (Histamine H3 receptor [1]) of 31 nM and a Ki (Histamine H3 receptor [2]) of 140 nM.
`C[C@@H](NC(=O)c1ccco1)C(=O)N1CCCN(CCCOc2ccc(-c3noc(CC(C)(C)C)n3)c(F)c2)CC1` showed a Ki (Histamine H3 receptor [1]) of 2.4 nM and a Ki (Histamine H3 receptor [2]) of 40 nM.
In the case of `C[C@@H](NC(=O)c1ccc(Cl)c(Cl)c1)C(=O)N1CCN(CCCOc2ccc(-c3noc(CC4CCCC4)n3)c(F)c2)CC1`, the Ki (Histamine H3 receptor [1]) is reported as 1.8 nM and the Ki (Histamine H3 receptor [2]) is reported as 15 nM.
`C[C@@H](NC(=O)c1cccc(Cl)c1)C(=O)N1CCN(CCCOc2ccc(-c3noc(CC4CCCC4)n3)c(F)c2)CC1` was tested, and the Ki (Histamine H3 receptor [1]) was 6.7 nM and the Ki (Histamine H3 receptor [2]) was 36 nM.
